Experimental data reported in publication PMC7773657, “Identification of Compounds With Glucocorticoid Sparing Effects on Suppression of Chemokine and Cytokine Production by Rheumatoid Arthritis Fibroblast-Like Synoviocytes” (Frontiers in Pharmacology, 2020).

Tests used:
THP-1 cells = experiment: TNF stimulated CXCL8 release by THP-1 cells (ELISA); assay type: cell-based; details: Homo sapiens, TNF 2 ng/ml, overnight, single agents (Figure 5A), read-out: IC50 for TNF stimulated CXCL8 release (titration experiment with DEX)
Procedure: THP-1 cells (10^5 cells/200 µL/well) and RA FLS (10^4/200 µL/well) were plated in 96 well plates and pre-treated with compound or vehicle for 1 h and then stimulated with either LPS (10 ng/ml), IL-1ß (2 ng/ml) or TNF (2 ng/ml for THP-1 and 1 ng/ml for RA FLS). After 18 h of incubation, supernatants were collected and the levels of cytokines and chemokines in the culture supernatants were measured by ELISA according to the manufacturer’s protocols (R&D systems, Minneapolis, MN).
Drug synergy analysis was performed using Isobologram plots which were calculated according to reported procedures using methods of Chou-Talalay ([Chou and Talalay, 1984]) to compute IC50 and determine synergism. IC50 is computed from the median effect equation. Synergism analysis is carried out using the Combination index (CI)-isobol method. Data analysis was performed using the CompuSyn software available on combisyn.com. Detailed methodology was used as described in a prior report ([Chou, 2006]). […] This is followed by CI-isobol method to quantitatively assess the synergism between these inhibitor drugs. […] From the median effect equation, the estimated dose (i.e., D) necessary to produce the inhibition (i.e. Fa, Fu) obtained by the combination was calculated. […]

NF-κB = NF-κB activation assay in LPS stimulated CellSensor NF-κB-bla THP-1 reporter cells (FRET); assay type: cell-based, human; details: THP-1 CellSensor NF-κB-bla reporter cells, LPS 10 ng/ml, 5 h and 16 h
Procedure: The CellSensor® NF-κB-bla THP-1 cell line has a stably integrated ß-lactamase reporter gene under the control of the nuclear factor kappa B (NF-κB) response element. […] In the presence of ß-lactamase, CCF4 was enzymatically cleaved and excitation at 409 nm produced a blue fluorescence signal (at 450 nm). The CellSensor® NF-κB-bla THP-1 cells were dispersed in 96-well plates (5 × 10^4 cells/200 µL/well) and incubated for 4 h. […] After incubation, the ß-lactamase substrate mixture (prepared according to the manufacturer’s protocol) was added to each well. Plates were incubated at room temperature in the dark for 2 h. Fluorescence was measured on a Tecan Infinite M200 plate reader (Tecan, Mannedorf, Switzerland) at an excitation wavelength of 405 nm and emission wavelengths of 465 and 535 nm. Emission ratios are calculated by dividing values from emission wavelength of 465 nm by those from emission wavelength of 535 nm. The response ratio was calculated as follows [(emission ratio of a test well)/average emission ratio of wells with vehicle (0.5% DMSO)] and values were normalized to the LPS control treated wells [response ratio of the compound/response ratio of LPS].

| IC50 (THP-1 cells) [nM] | SMILES | Inhibition of LPS induced NF-κB activity (NF-κB) |
| --- | --- | --- |
| 300 | C[C@@H]1C[C@H]2[C@@H]3CCC4=CC(=O)C=C[C@]4(C)[C@@]3(F)[C@@H](O)C[C@]2(C)[C@@]1(O)C(=O)CO [DEX, dexamethasone] | inhibited NF-κB activity more potently at 16 h than 5 h |
|  | NC(=O)Nc1sc(-c2ccc(F)cc2)cc1C(N)=O [UTC, 5-(4-fluorophenyl)-2-ureidothiophene-3 carboxylic acid amide] | inhibited NF-κB activity at both time points |
